Experimental data published in patent US8268754B2, “Substituted dihydroazole compound and pest control agent” (Nissan Chemical Industries, Ltd., priority 2007, dated 2012).

Columns and labels:
Assay type in all cases: in vivo
Helicoverpa armigera = experiment: Mortality test for Helicoverpa armigera (cabbage leaf dip); conditions: foliar, 144 h, drug solution 100 ppm, 2 instar larva, after 6 days, 25° C., 12 replications
Protocol: A 10% emulsifiable concentrate of the compound of the present invention (depending on the type of the compound, a 10% wettable powder was subjected to the test) was diluted with water containing a spreader to prepare a drug solution in a concentration of 100 ppm. In this drug solution, a leaf of cabbage was immersed for about 10 seconds and was air-dried and then put into a petri dish. In the petri dish, one 2 instar larva of Helicoverpa armigera per petri dish was released and the petri dish was capped and stored in a thermostatic room of 25° C. The number of killed larvae after 6 days was counted and the mortality was calculated from the same calculation formula as that in Test Example 1. Here, the test was carried out in 12 replications.

Tetranychus urticae = experiment: Mortality test for Tetranychus urticae (kidney bean leaf spray); conditions: 144 h, drug solution 500 ppm, sprayed 2.5 mL per cup, larvae, after 6 days, 25° C.
Protocol: (§1) In a styrol cup having an inner diameter of 7 cm, a wet filtration paper was laid, and on the paper, a leaf of kidney bean cut out so as to have the same diameter as the inner diameter of the cup was laid, followed by inoculating the leaf with ten larvae of Tetranychus urticae per leaf. A 10% emulsifiable concentrate of the compound of the present invention (depending on the type of the compound, a 10% wettable powder was subjected to the test) was diluted with water containing a spreader to prepare a drug solution in a concentration of 500 ppm. The drug solution was sprayed using a rotary spray tower in an amount of 2.5 mL per styrol cup and the cup was capped and stored in a thermostatic room of 25° C. The number of killed larvae after 6 days was counted and the mortality was calculated from the same calculation formula as that in Test Example 1. Here, the test was carried out in two replications.

Liriomyza trifolii = experiment: Mortality test for Liriomyza trifolii (kidney bean leaf dip); conditions: foliar, 144 h, drug solution 500 ppm, eggs on kidney bean leaf, killed larvae after 6 days, 25° C.
Protocol: A 10% emulsifiable concentrate of the compound of the present invention (depending on the type of the compound, a 10% wettable powder was subjected to the test) was diluted with water containing a spreader to prepare a drug solution in a concentration of 500 ppm. In this drug solution, a leaf of kidney bean which was cut out to a diameter of 7 cm, on which Liriomyza trifolii laid eggs (10 eggs/leaf) was immersed for about 10 seconds and was air-dried and then laid on a wet filtration paper laid in a styrol cup having an inner diameter of 7 cm. The styrol cup was capped and stored in a thermostatic room of 25° C. The number of killed larvae after 6 days was counted and the mortality was calculated from the same calculation formula as that in Test Example 1. Here, the test was carried out in two replications.

[1] = test system: Frankliniella occidentalis; experiment: Mortality test for Frankliniella occidentalis (kidney bean leaf spray); conditions: 48 h, drug solution 500 ppm, sprayed 2.5 mL per cup, 1 instar larvae, after 2 days, 25° C.
Protocol: as §1, with “ten 1 instar” for “ten”, “Frankliniella occidentalis” for “Tetranychus urticae”, “2” for “6”

Planococcus kraunhiae = experiment: Mortality test for Planococcus kraunhiae (kidney bean leaf spray); conditions: 144 h, drug solution 500 ppm, sprayed 2.5 mL per cup, 1 instar larvae, after 6 days, 25° C.
Protocol: as §1, with “ten 1 instar” for “ten”, “Planococcus kraunhiae” for “Tetranychus urticae”

Aulacophora femoralis = experiment: Mortality test for Aulacophora femoralis (cucumber leaf dip); conditions: foliar, 144 h, drug solution 500 ppm, 2 instar larvae, after 6 days, 25° C.
Protocol: (§2) A 10% emulsifiable concentrate of the compound of the present invention (depending on the type of the compound, a 10% wettable powder was subjected to the test) was diluted with water containing a spreader to prepare a drug solution in a concentration of 500 ppm. In this drug solution, a leaf of cucumber was immersed for about 10 seconds and was air-dried and then put into a petri dish. In the petri dish, five 2 instar larvae of Aulacophora femoralis per petri dish were released and the petri dish was capped and stored in a thermostatic room of 25° C. The number of killed larvae after 6 days was counted and the mortality was calculated from the same calculation formula as that in Test Example 1. Here, the test was carried out in two replications.

Plutella xylostella = experiment: Mortality test for Plutella xylostella (cabbage leaf dip); conditions: foliar, 144 h, drug solution 100 ppm (mark *), 2 instar larvae, after 6 days, 25° C.
Protocol: as §2, with “[…]” for “500”, “cabbage” for “cucumber”, “Plutella xylostella” for “Aulacophora femoralis”, “following” for “same”, “formula: Mortality (%)=(number of killed insects/number of released insects)×100.” for “formula as that in Test Example 1.”

Bemisia argentifolii = experiment: Mortality test for Bemisia argentifolii (tomato leaf spray); conditions: 144 h, drug solution 500 ppm, sprayed 2.5 mL per cup, eggs on tomato leaf, killed larvae after 6 days, 25° C.
Protocol: In a styrol cup having an inner diameter of 7 cm, a wet filtration paper was laid, and on the paper, a cut-out leaf of tomato on which Bemisia argentifolii laid eggs (10 eggs/leaf) was laid. A 10% emulsifiable concentrate of the compound of the present invention (depending on the type of the compound, a 10% wettable powder was subjected to the test) was diluted with water containing a spreader to prepare a drug solution in a concentration of 500 ppm. The drug solution was sprayed using a rotary spray tower in an amount of 2.5 mL per styrol cup and the cup was capped and stored in a thermostatic room of 25° C. The number of killed larvae after 6 days was counted and the mortality was calculated from the same calculation formula as that in Test Example 1. Here, the test was carried out in two replications.

O=C(NCc1ccc(C2=NCC(c3cc(Cl)cc(Cl)c3)(C(F)(F)F)C2)cc1Br)C1CC1 (centres unmarked) [No. 1-001, 2-bromo-N-cyclopropylcarbonyl-4-[4-(3,5-dichlorophenyl)-4-trifluoromethyl-4,5-dihydro-3H-pyrrole-2-yl] benzylamine]
≥ 80%: mortality at 100 ppm (Helicoverpa armigera)

FC(F)(F)C1(c2cc(Cl)cc(Cl)c2)CN=C(c2ccc(-n3cncn3)cc2)C1 (centres unmarked) [No. 3-001, 4-(3,5-dichlorophenyl)-2-[4-(1,2,4-triazole-1-yl)phenyl]-4-trifluoromethyl-4,5-dihydro-3H-pyrrole]
≥ 80%: mortality at 500 ppm (Tetranychus urticae) | mortality at 500 ppm (Liriomyza trifolii) | mortality at 500 ppm [1] | mortality at 500 ppm (Planococcus kraunhiae) | mortality at 500 ppm (Aulacophora femoralis) | mortality at 100 ppm (Plutella xylostella) | mortality at 500 ppm (Bemisia argentifolii)
